Source: patent publication US7745436B2, “Disalt inhibitors of IL-12 production” (Synta Pharmaceuticals Corporation, priority 2004, dated 2010)

Tests used:
[1] = Solubility determination in water (vortex, sonication at ~50° C, HPLC of supernatant); assay type: physicochemical; conditions: for Solubility: water, vortexed and sonicated ~5-10 min at ~50° C, HPLC
Method: The disalts described herein can have a relatively high solubility, e.g., water solubility. As used herein, the “solubility” of a disalt in a solvent refers to the maximum mass of a disalt that can be dissolved per unit volume of the solvent under accelerated dissolution conditions (50-60° C. with concommitant ultrasonic agitation of the disalt/solvent test sample). Unless otherwise indicated, solubility data is expressed in terms of units of milligrams (mg)/milliliter (mL), e.g., mg/mL.
The compound was weighed, and water was added to it such that the ratio of the sample and water of the mixture would be 100 mg/mL. The mixture was then shaken using a Vortex-Genie2 shaker (vortexed) and sonicated (˜5-10 min at ˜50° C). If a clear solution has been obtained, more compound was added to the solution, and a mixture was vortexed and sonicated until a homogeneous suspension was achieved. The suspension was then centrifuged at 10,000 rpm for about 10 min. The supernatant was taken out and diluted with 50/50 (v/v) EtOH/water, then the sample was analyzed by HPLC to determine the concentration.
The HPLC system consisted of the HP 1100 Model (Agilent, Wilmington, Del.) equipped with a model 1100 quaternary pump, a model 1100 autosampler, a model 1100 Diode-Array Detector for UV detection at 320 nm. The HPLC analysis was performed using an isocratic mobile phase consisting of acetonitrile-water containing 10 mM NH4OAc . Mobile phases were degassed and filtered through a solvent filtration apparatus and pumped at a constant rate of 1.0 mL/min. The separation was made on an XTerra MS C18 analytical column, 4.6 mm i.d.×150 mm, (Waters Corp., Milford, Mass., USA) fitted with a precolumn filter (XTerra MS C18, 3.9 mm×20mm). The column was maintained at 30° C. Data acquisition and instrument setting were controlled using HP Chemstation software (ver.8.03).

[2] = Solubility in water at fixed concentrations (5 mg per 0.1, 0.2 or 0.25 mL); assay type: physicochemical

C(=NNc1cc(N2CCOCC2)nc(OCCc2ccccn2)n1)c1c[nH]c2ccccc12
melting point: 160 to 165 °C

CN(N=Cc1c[nH]c2ccccc12)c1cc(N2CCOCC2)nc(OCCc2ccccn2)n1
melting point: 130 to 140 °C

Cc1cccc(C=NNc2nc(OCCc3ccccn3)nc(N3CCOCC3)n2)c1
melting point: 143 to 147 °C

C(=NNc1nc(OCCc2ccccn2)nc(N2CCOCC2)n1)c1c[nH]c2ccccc12
melting point: 158 to 161 °C

CS(=O)(=O)O.Cc1cccc(C=NNc2cc(N3CCOCC3)nc(OCCc3ccccn3)n2)c1 [{[(1)(1H^+)]^1+•[1(CH3SO3^−)]^1−}, N-(3-Methyl-benzylidene)-N′-[6-morpholin-4-yl-2-(2-pyridin-2-yl-ethoxy)-pyrimidin-4-yl]-hydrazine 1 methanesulfonate (mesylate)]
Solubility [1]: 52.0 ± 0.1 mg/mL

Cc1cccc(C=NNc2cc(N3CCOCC3)nc(OCCc3ccccn3)n2)c1.Cl [{[(1)(2H^+)]^1+•[1(Cl^−)]^1−}, N-(3 -Methyl-benzylidene)-N′-[6-morpholin-4-yl-2-(2-pyridin-2-yl-ethoxy)-pyrimidin-4-yl]-hydrazine (1) hydrochloride]
Solubility [1]: 12.6 ± 0.4 mg/mL

CS(=O)(=O)O.CS(=O)(=O)O.Cc1cccc(C=NNc2cc(N3CCOCC3)nc(OCCc3ccccn3)n2)c1 [{[(1)(2H^+)]^2+•[2(CH3SO3^−)]^2−}, N-(3-Methyl-benzylidene)-N′-[6-morpholin-4-yl-2-(2-pyridin-2-yl-ethoxy)-pyrimidin-4-yl]-hydrazine (1) dimethanesulfonate (dimesylate)]
solubility of disalt relative to the solubility of the corresponding monosalt ([1]; versus monosalt {[(1)(1H^+)]^1+.[1(CH3SO3^−)]}): more than ten times greater
Solubility [1]: 831 ± 5 mg/mL

Cc1cccc(C=NNc2cc(N3CCOCC3)nc(OCCc3ccccn3)n2)c1.Cl.Cl [{[(1)(2H^+)]^2+•[2(Cl^−)]^2−}, N-(3-Methyl-benzylidene)-N′-[6-morpholin-4-yl-2-(2-pyridin-2-yl-ethoxy)-pyrimidin-4-yl]-hydrazine (1) dihydrogenchloride (dichloride)]
solubility in water at a concentration of 5 mg/0.1 mL [2]: soluble
Solubility [1]: 213 ± 5 mg/mL

Cc1cccc(C=NNc2cc(N3CCOCC3)nc(OCCc3ccccn3)n2)c1.O=[N+]([O-])O.O=[N+]([O-])O [{[(1)(2H^+)]^2+•[2(NO3^−)]^2−}, N-(3-Methyl-benzylidene)-N′-[6-morpholin-4-yl-2-(2-pyridin-2-yl-ethoxy)-pyrimidin-4-yl]-hydrazine (1) dinitrate]
solubility in water at a concentration of 5 mg/0.1 mL [2]: insoluble
solubility in water at a concentration of 5 mg/0.2 mL ([2]; 5 mg/0.2 mL): partially soluble
solubility in water at a concentration of 5 mg/0.25 mL ([2]; 5 mg/0.25 mL): partially soluble
Solubility [1]: 83.4 ± 0.2 mg/mL

C(=NNc1cc(N2CCOCC2)nc(OCCc2ccccn2)n1)c1c[nH]c2ccccc12.CS(=O)(=O)O.CS(=O)(=O)O [{[(2)(2H^+)]^2+•[2(CH3SO3^−)]^2−}, N-(1H-indol-3-ylmethylene)—N′-[6-morpholin-4-yl-2-(2-pyridin-2-yl-ethoxy)-pyrimidin-4-yl]-hydrazine (2) dimethanesulfonate (dimesylate)]
Solubility [1]: 454 ± 5 mg/mL

CN(N=Cc1c[nH]c2ccccc12)c1cc(N2CCOCC2)nc(OCCc2ccccn2)n1.CS(=O)(=O)O.CS(=O)(=O)O [{[(3)(2H^+)]^2+•[2(CH3SO3^−)]^2−}, N′-(1H-indol-3-ylmethylene)-N-methyl-N-[6-morpholin-4-yl-2-(2-pyridin-2-yl-ethoxy)-pyrimidin-4-yl]-hydrazine (3) dimesylate]
Solubility [1]: 306 ± 14 mg/mL
